Tests used:
Type in all cases: cell-based
RD cells = assay: Detection of cytotoxicity in RD cells (CellTiter-Glo); details: for TD50: 4 days, CellTiter-Glo, median toxic dose
How it was run: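 RD cells (1*10^5/mL) cultured 4 days at 37 °C with 10 compound concentrations from 3-fold dilution of a 400 μM pretreatment solution, final being 0.5 times that. Viability by CellTiter-Glo luminescence versus cell control; TD50 from S-curve fit; SI=TD50/IC50.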

mTORC1 = target: T1, mTORC1 (Homo sapiens, UniProt P42345); assay: Western blot, phosphorylation of Thr389 of p70S6K1 in RD cells (mTORC1 inhibition); details: 20 μM, 2 hours, Western blot (FIG. 1)
T1 construct: endogenous in cells; host or cells: RD cells
Protocol: (§1) In order to test the inhibitory activity of the synthesized compounds on the two mTOR complexes, the inhibitory activity experiments of mTORC1 and mTORC2 were carried out. Since mTORC1 and mTORC2 exerted their function by activating the phosphorylation of downstream substrates, the inhibitory activity of the compounds on mTORC1 and mTORC2 could be determined by detecting the phosphorylation levels of the Thr389 site of mTORC1 downstream substrate p70S6K1 and the Ser473 site of mTORC2 downstream substrate Akt.
(§2) Pretreatment of Compound:
(§3) (1) RD cells were cultured in DMEM medium containing 10% FBS and 1×PS (penicillin and streptomycin were at concentrations 100 IU and 100 μg/mL, respectively) at 37° C. and 5% CO2.
(§4) (2) The RD cells (5×10^5 cells/2 mL medium) were inoculated into a 6-well plate and incubated at 37° C. and 5% CO2 for 24 hours.
(§5) (3) The cells were washed once with PBS, and the cells were cultured in serum-free medium without nutrients overnight.
(§6) (4) Formulation of compounds: […]
(§7) Preparation of insulin medium: Insulin was diluted in DMEM medium containing 10% FBS and 1×PS so that the final concentration of insulin was 167 nM.
(§8) Pretreatment of compound to be tested: The compound was dissolved in DMSO so that the concentration of the test compound was 20 mM, and the compound was diluted in 167 nM insulin medium to reach a concentration of 20 μM.
(§9) Preparation of rapamycin solution: Rapamycin was dissolved in DMSO to a concentration of 10 mM, and the rapamycin was diluted in 167 nM insulin medium to reach a concentration of 20 μM.
(§10) (5) The serum-free medium in each well was removed.
(§11) (6) 2 mL of complete medium containing DMSO was added to each well as a control carrier. The final concentration of DMSO was 0.2%.
(§12) (7) 2 mL of 20 μM rapamycin solution and 20 μM the compound to be tested were added to the designated wells, respectively. The final concentration of DMSO was 0.2%.
(§13) (8) The cells were incubated for 2 hours at 37° C. and 5% CO2.
(§14) Protein extraction and concentration determination:
(§15) (1) The cells were washed once with refrigerated PBS, and then the PBS was discarded.
(§16) (2) 150 μL of cell extraction buffer (RIPA, […], catalog number: C1053) was transferred into each well to lyse the cells, and then the resulting cell solution were incubated on ice for 30 minutes.
(§17) (3) Centrifugation was performed at 14000 rpm (13000× g) for 30 minutes at 4° C.
(§18) (4) The supernatant was transferred into a new eppendorf tube, and the cell lysate was stored at −80° C. before testing.
(§19) (5) The protein concentration was determined by BCA method.
(§20) Preparation of Buffer Solutions:
(§21) (1) 100× Protease inhibitor (Beyotime, catalog number: P1005): 1 mL of redistilled water was added to the protease inhibitor and stirred gently until the solid was completely dissolved.
(§22) (2) Lysis Buffer: […] of 100× protease inhibitor and 2× phosphatase inhibitor Cocktails PhosSTOP (Beyotime, catalog number: P1082) were added to 100 mL of the cell extract, and stirred gently until it was completely dissolved.
(§23) (3) Electrophoresis Running Buffer:
(§24) 10×MOPS buffer: 52.33 g of MOPS, 30.29 g of Tris base, 10 mL of 0.5 mol/L EDTA (pH 8.5) and 5 g of SDS was dissolved in 400 mL of redistilled water, stirred to dissolve, and the pH was adjusted to 7.5, then redistilled water was added again to reach a volume of 500 mL; 1×MOPS: 100 mL of 10×MOPS was diluted with redistilled water to 1000 mL.
(§25) (4) 1× Transfer Buffer: […] of 10× transfer buffer (144 g of glucine, 30.3 g of trisbase, and distilled water were mixed to reach a volume of 1 L) and 400 mL of methanol were dissolved in 1500 mL of redistilled water, and then the redistilled water was added to reach a volume of 2000 mL. […]

mTORC2 = target: T2, mTORC2 (Homo sapiens, UniProt P42345); assay: Western blot, phosphorylation of Ser473 of Akt in RD cells (mTORC2 inhibition); details: 20 μM, 2 hours, Western blot (FIG. 1)
T2 construct: endogenous in cells; host or cells: RD cells
Protocol: as §1, §2, §3, §4, §5, §6, §7, §8, §9, §10, §11, §12, §13, §14, §15, §16, §17, §18, §19, §20, §21, §22, §23, §24, §25

Structure (SMILES) | toxicity, in words (RD cells) | TD50 (RD cells) [µM] | p70 phosphorylation expression level (mTORC1) | phosphorylation expression level of Akt (mTORC2)
O=c1ccc2cnc3ccc(-c4cccnc4F)cc3c2n1-c1cccc(C(F)(F)F)c1 [HTL-6-48, 9-[3-(2-fluoro)pyridyl]-2-oxo-1-[3-(trifluoromethyl)phenyl]-1,2-dihydrobenzo [h][1,6]naphthyridine] | relatively low toxicity | 1.23 ± 1.20 | significantly down-regulate | significantly down-regulate
O=c1ccc2cnc3ccc(-c4cc[nH]n4)cc3c2n1-c1cccc(C(F)(F)F)c1 [HTL-6-50, 9-[(1H)-3-pyrazolyl]-2-oxo-1-[3-(trifluoromethyl)phenyl]-1,2-dihydrobenzo[h][1,6]naphthyridine] |  | 0.17 ± 0.05 | significantly down-regulate | significantly down-regulate
O=c1ccc2cnc3ccc(-c4ccc(F)nc4)cc3c2n1-c1cccc(C(F)(F)F)c1 [HTL-7-01, 9-[3-(6-fluoro)pyridyl]-2-oxo-1-[3-(trifluoromethyl)phenyl]-1,2-dihydrobenzo[h][1,6]naphthyridine] |  | 0.23 ± 0.33 | significantly down-regulate | significantly down-regulate
O=C(Cc1ccccc1)Nc1ccc(-c2ccc3ncc4ccc(=O)n(-c5cccc(C(F)(F)F)c5)c4c3c2)cn1 [HTL-7-10, 9-[3-(6-phenylacetylamino)pyridyl]-2-oxo-1-[3-(trifluoromethyl)phenyl]-1,2-dihydrobenzo[h][1,6]naphthyridine] |  | 0.74 ± 0.72 | significantly down-regulate | significantly down-regulate
Cc1ncccc1-c1ccc2ncc3ccc(=O)n(-c4cccc(C(F)(F)F)c4)c3c2c1 [HTL-6-49, 9-[3-(2-methyl)pyridyl]-2-oxo-1-[3-(trifluoromethyl)phenyl]-1,2-dihydrobenzo[h][1,6]naphthyridine] |  | 0.07 ± 0.00 | significantly down-regulate | significantly down-regulate
CN1CCN(c2ccc(-c3ccc4ncc5ccc(=O)n(-c6cccc(C(F)(F)F)c6)c5c4c3)cn2)CC1 [HTL-7-17, 9-{3-[6-(4-methylpiperazin-1-yl)pyridyl]}-2-oxo-1-[3-(trifluoromethyl)phenyl]-1,2-dihydrobenzo[h][1,6]naphthyridine] |  | 0.18 ± 0.15 | significantly down-regulate | significantly down-regulate
CCCC(=O)Nc1ccc(-c2ccc3ncc4ccc(=O)n(-c5cccc(C(F)(F)F)c5)c4c3c2)cn1 [HTL-7-05, 9-[3-(6-butyrylamino)pyridyl]-2-oxo-1-[3-(trifluoromethyl)phenyl]-1,2-dihydrobenzo[h][1,6]naphthyridine] |  | 0.75 ± 0.36 | significantly down-regulate | significantly down-regulate
COc1ccc(CC(=O)Nc2ccc(-c3ccc4ncc5ccc(=O)n(-c6cccc(C(F)(F)F)c6)c5c4c3)cn2)cc1 [HTL-7-11, 9-{3-[6-(4-methoxy)phenylacetylamino]pyridyl}-2-oxo-1-[3-(trifluoromethyl)phenyl]-1,2-dihydrobenzo[h][1,6]naphthyridine] |  | 0.19 ± 0.10 | significantly down-regulate | significantly down-regulate
CC(C)(C)OC(=O)Nc1ccc(-c2ccc3ncc4ccc(=O)n(-c5cccc(C(F)(F)F)c5)c4c3c2)cn1 [HTL-7-21, 9-[3-(6-tert-butoxycarbonylamino)pyridyl]-2-oxo-1-[3-(trifluoromethyl)phenyl]-1,2-dihydrobenzo[h][1,6]naphthyridine] |  | 0.69 ± 0.50 | significantly down-regulate | significantly down-regulate
NC(=O)c1ccc(-c2ccc3ncc4oc(=O)n(-c5cccc(C(F)(F)F)c5)c4c3c2)cc1 [HTL-5-21, 8-(4-carbamoyl)phenyl-1-[3-(trifluoromethyl)phenyl]oxazolo[5,4-c]quinolin-2(1H)-one] |  | 6.95 ± 1.23 | significantly down-regulate | significantly down-regulate

Reference: US20220220106A1, “QUINOLINE COMPOUNDS AND PHARMACEUTICAL COMPOSITIONS AND USES THEREOF” (Academy of Military Medical Sciences, priority 2019, published 2022)
